In US20230131808A1, “PEGYLATED INTERFERON TAU AND COMPOSITIONS AND METHODS THEREOF” (priority 2020, published 2023):

How the values were obtained:
[1] = system: Huh7 cells; test: Cytotoxicity in Huh7 cells without virus infection (CellTiter Glo)
[2] = as above; settings: human
[3] = system: Human Coronavirus 229E (hCoV-229E); test: microbe, parasite or virus in culture; format: cell-based
[4] = system: hCoV-OC43; test: HCoV OC43 CPE assay in Huh7 cells; format: cell-based; settings: Betacoronavirus 1, Huh-7

CCC(CC)COC(=O)[C@H](C)N[P@](=O)(OC[C@H]1O[C@@](C#N)(c2ccc3c(N)ncnn23)[C@H](O)[C@@H]1O)Oc1ccccc1 [Remdesivir]
Average Viability (%) ([1]; 0.046 μM): 99.99% | Average Viability (%) ([1]; 0.137 μM): 101.58% | Average Viability (%) ([1]; 0.412 μM): 104.10% | Average Viability (%) ([1]; 1.235 μM): 102.28% | Average Viability (%) ([1]; 3.704 μM): 86.91% | Average Viability (%) ([1]; 11.11 μM): 56.84% | Average Viability (%) ([1]; 33.33 μM): 36.88% | Average Viability (%) ([1]; 100.00 μM): 21.77% | CC50 at 7 days [2]: 17.2 µM

NC(=O)c1ncn([C@@H]2O[C@H](CO)[C@@H](O)[C@H]2O)n1 [Ribavirin]
IC50 [3]: 30 µM

CCN(CC)CCCC(C)Nc1ccnc2cc(Cl)ccc12 (centres unmarked) [chloroquine phosphate]
EC50 [4]: 3.12 µM
